Consider seven compounds from patent publication US20080287490A1, “Bis-pyridino containing compounds for the use in the treatment of CNS pathologies” (UNIVERSITY OF KENTUCKY RESEARCH FOUNDATION, priority 2005, published 2008).

Like-named read-outs stand apart in the source and are kept apart here. Where only a bound is given, the exact number is not on record here.

Test [1] concerns nAChR subtypes mediating nicotine-evoked [^3H]-dopamine overflow.
Protocol: [^3H]-Dopamine overflow from superfused striatal slices. […] Striatal coronal slices (500 μm, 4-6 mg) were obtained and incubated for 30 minutes in Krebs' buffer (in mM: 118 NaCl, 4.7 KCl, 1.2 MgCl2, 1 NaH2PO4, 1.3 CaCl2, 11.1 glucose, 25 NaHCO3, 0.11 L-ascorbic acid and 0.004 disodium EDTA, pH 7.4, saturated with 95% O2/5% CO2) in a metabolic shaker at 34° C. Slices were incubated with 0.1 μM (final concentration) of [^3H]-dopamine during the latter 30 minutes of the 60-minute incubation period. Each slice was transferred to a glass superfusion chamber maintained at 34° C. and superfused (1 ml/min) with Krebs' buffer containing nomifensine (10 μM) and pargyline (10 μM) to inhibit [^3H]-dopamine reuptake after release into the extracellular space, ensuring that [^3H]-overflow primarily represented [^3H]-dopamine. Sample collection (5-minute; 5 mL) began after 60 minutes of superfusion. […] At the end of the experiment, each slice was solubilized, and the [^3H]-content of the tissue determined. Release during each minute was normalized for total tissue [^3H]-content. Analog-induced intrinsic activity and inhibitory activity were determined using slices from the same rat (repeated-measures design).
The amount of [^3H] in each sample was calculated by dividing the total [^3H] collected in each sample by the total in the tissue at the time of sample collection (defined as fractional release). […] Data were analyzed by weighted, least squares regression analysis of the sigmoidal concentration-effect curves to obtain EC50 and IC50 values.
Striatal slices (500 μm, 4-6 mg) were incubated for 30 minutes in Krebs' buffer (in mM: 118 NaCl, 4.7 KCl, 1.2 MgCl2, 1 NaH2PO4, 1.3 CaCl2, 11.1 glucose, 25 NaHCO3, 0.11 L-ascorbic acid and 0.004 disodium EDTA, pH 7.4, saturated with 95% O2/5% CO2) in a metabolic shaker at 34° C. Slices were incubated with 0.1 μM (final concentration) [^3H]DA during the latter 30 minutes of the 60-minute incubation period. Each slice was transferred to a glass superfusion chamber maintained at 34° C. and superfused (1 ml/min) with Krebs' buffer containing nomifensine (10 μM) and pargyline (10 μM) to inhibit [^3H]DA reuptake and metabolism, respectively, after release into the extracellular space, ensuring that [^3H]overflow primarily represents [^3H]DA. Sample collection (5-minute; 5 ml) began after 60 minutes of superfusion. […] Thus, the ability of these analogs to elicit intrinsic activity (evoke [^3H]DA overflow) was determined. At the end of the experiment, each slice was solubilized and [^3H]content of the tissue determined. Release during each minute was normalized for total [^3H]content of the slice. Analog-induced intrinsic activity and inhibitory activity were determined using slices from the same rat (repeated-measures design).
Fractional release was calculated by dividing the total tritium collected in each sample by the total tritium in the tissue at the time of sample collection. […] Typically, data were analyzed by weighted, least squares regression analysis of sigmoidal concentration-effect curves to obtain EC50 and IC50 values.
For test [2], the system named is nAChR subtypes mediating nicotine-evoked DA release. The test is described as follows: Analog-evoked [^3H]DA overflow (intrinsic activity) from superfused striatal slices. Type of test: cell-based, rat.
The target in test [3] is T1, Rat Striatal Nicotinic Acetylcholine Receptors ([^3H]nicotine binding sites) (Rattus norvegicus, UniProt P09483+P12390).
T1 construct: Striata from two rats were dissected, pooled, and homogenized; from tissue; host or cells: rat striatum membranes
T1 sequence (P09483 31-630): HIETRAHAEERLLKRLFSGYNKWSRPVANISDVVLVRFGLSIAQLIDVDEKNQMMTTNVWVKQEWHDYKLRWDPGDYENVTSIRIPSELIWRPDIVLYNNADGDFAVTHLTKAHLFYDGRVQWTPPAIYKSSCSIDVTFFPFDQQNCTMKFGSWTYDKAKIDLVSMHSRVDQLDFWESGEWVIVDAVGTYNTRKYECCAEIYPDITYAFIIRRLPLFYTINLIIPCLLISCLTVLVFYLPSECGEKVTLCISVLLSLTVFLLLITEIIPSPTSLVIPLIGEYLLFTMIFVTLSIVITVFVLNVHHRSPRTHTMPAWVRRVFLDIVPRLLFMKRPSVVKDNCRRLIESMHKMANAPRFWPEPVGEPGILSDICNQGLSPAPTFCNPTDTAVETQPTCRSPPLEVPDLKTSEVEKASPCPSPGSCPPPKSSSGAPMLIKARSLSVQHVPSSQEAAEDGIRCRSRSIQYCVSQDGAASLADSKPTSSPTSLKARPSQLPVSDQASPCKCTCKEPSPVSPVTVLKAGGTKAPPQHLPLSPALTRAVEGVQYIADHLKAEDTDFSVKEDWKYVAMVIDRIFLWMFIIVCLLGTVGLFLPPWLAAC
T1 sequence (P12390 25-500): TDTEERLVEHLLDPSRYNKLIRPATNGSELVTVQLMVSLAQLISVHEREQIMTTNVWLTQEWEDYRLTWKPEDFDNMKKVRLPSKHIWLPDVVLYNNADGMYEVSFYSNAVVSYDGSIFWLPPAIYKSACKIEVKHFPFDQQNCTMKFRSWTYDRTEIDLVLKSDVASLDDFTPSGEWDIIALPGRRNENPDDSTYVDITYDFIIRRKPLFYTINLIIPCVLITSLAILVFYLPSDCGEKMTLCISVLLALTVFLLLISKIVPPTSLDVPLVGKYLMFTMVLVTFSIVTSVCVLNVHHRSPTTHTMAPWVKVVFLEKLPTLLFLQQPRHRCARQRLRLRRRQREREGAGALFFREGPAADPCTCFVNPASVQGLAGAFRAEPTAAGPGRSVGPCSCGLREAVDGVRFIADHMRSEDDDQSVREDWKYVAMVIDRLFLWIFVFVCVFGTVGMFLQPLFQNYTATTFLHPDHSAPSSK
The test is described as follows: biochemical. The settings on record: rat striatal membranes, 3 nM [^3H]-nicotine; read-out: Ki, specific binding of [^3H]-nicotine. On the procedure:
Striata from two rats were dissected, pooled, and homogenized with a Tekmar polytron in 10 volumes of ice-cold modified Krebs-HEPES buffer (20 mM HEPES, 118 mM NaCl, 4.8 mM KCl, 2.5 mM CaCl2, 1.2 mM MgSO4, adjusted to pH 7.5). The homogenates were incubated at 37° C. for five minutes and centrifuged at 15,000 g for 20 minutes. The pellet was resuspended in ten volumes of ice-cold MilliQ water, incubated for five minutes at 37° C., and centrifuged at 15,000 g for 20 minutes The second pellet was then resuspended in ten volumes of fresh ice-cold 10% Krebs-HEPES buffer, incubated at 37° C., and centrifuged at 15,000 g for 20 minutes. The latter sequence of resuspension, incubation, and centrifugation was repeated. The pellet was frozen under fresh 10% Krebs-HEPES buffer and stored at −40° C. until assay. Upon assay, the pellet was resuspended in the Krebs-HEPES buffer, incubated at 37° C. for five minutes, and centrifuged at 15,000 g for 20 minutes. The final pellet was resuspended in 3.6 ml ice-cold MilliQ water which provided for approximately 200 μg protein per 100 μl aliquot. Competition assays were performed in duplicate in a final volume of 200 μl Krebs-HEPES buffer containing […] Tris buffer (pH 7.5 at 4° C.). […] After a 90 minute incubation at 4° C., reactions were terminated by dilution of the samples with 3 ml of ice-cold Krebs-HEPES buffer followed immediately by filtration through Whatman GF/B glass fiber filters (presoaked in 0.5% polyethyleneimine) using a Brandel Cell Harvester. Filters were rinsed three times with 3 ml of ice-cold Krebs-HEPES buffer, transferred to scintillation vials, and 5 ml scintillation cocktail (Research Products International Corp., Mt. Prospect, Ill.) added. […] Binding parameters were determined using the weighted, least squares non-linear regression.

Test [4] relates to nAChR mediating nicotine-evoked [^3H]DA release (α3β2* receptor subtype). Type of test: cell-based, rat. The settings on record: rat striatal slices, nicotine 10 μM; read-out: IC50, S-(−)-nicotine-evoked [^3H]DA release. On the procedure: Slices were rinsed with 15 mL of fresh buffer and incubated for an additional 30 minutes in fresh buffer containing 0.1 μM [^3H]DA (6 slices/3 ml). Subsequently, slices were rinsed with 15 ml of fresh buffer and transferred to a glass superfusion chamber.
Radioactivity in the superfusate and tissue samples was determined by liquid scintillation spectroscopy. […] Basal [^3H]outflow was calculated from the average of the tritium collected in the two five minute samples just before addition of the bis-alkyl pyridino analog. […] [^3H]Overflow was calculated by subtracting the [^3H]outflow during an equivalent period of prestimulation from the values in samples collected during and after drug exposure. Inasmuch as the radiolabelled compounds were not separated and identified, the tritium collected in superfusate is referred to as either [^3H]outflow or [^3H]overflow, rather than as [^3H]DA.

A further test deals with α4β2* nAChRs (Rattus norvegicus, UniProt P09483+P12390).
Chain of α4β2* nAChRs (P09483 31-630): as the sequence (P09483 31-630) above
Chain of α4β2* nAChRs (P12390 25-500): as the sequence (P12390 25-500) above
Test [5] has as its target T2, α7* nAChRs (Rattus norvegicus, UniProt Q05941). The test is described as follows: biochemical.
Protocol: (§1) Whole brain, excluding cortex and cerebellum, was homogenized in 20 ml of ice-cold buffer, containing (in mM): 2 HEPES, 11.8 NaCl, 0.48 KCl, 0.25 CaCl2 and 0.12 MgSO4, pH 7.5. Homogenate was centrifuged (25,000 g, 15 minutes, 4° C.). Pellets were resuspended in 20 ml of buffer and incubated at 37° C., for ten minutes, cooled to 4° C. and centrifuged (25,000 g, 15 minutes, 4° C.). Pellets were resuspended and centrifuged using the same conditions. Final pellets were stored in assay buffer, containing (in mM): 20 HEPES, 118 NaCl, 4.8 KCl, 2.5 CaCl2, and 1.2 MgSO4) pH 7.5 at −70° C. Upon use, final pellets were resuspended in ˜20 ml assay buffer. […] Control was in the absence of analog. […] Incubations proceeded for 60 minutes at room temperature using 96-well plates and were terminated by harvesting on Unifilter-96 GF/B filter plates presoaked in 0.5% polyethylenimine, using a Packard FilterMate harvester.
(§2) After washing five times with 350 μl ice-cold assay buffer, filter plates were dried (60 minutes, 49° C.), bottom-sealed, and filled with Packard's MicroScint 20 cocktail (40 μl/well). After 60 minutes, filter plates were top-sealed, and radioactivity determined using a Packard TopCount. Protein concentrations were determined using bovine serum albumin as the standard.
(§3) Whole brain was homogenized in 20 ml of ice-cold buffer (in mM: 2 HEPES, 11.8 NaCl, 0.48 KCl, 0.25 CaCl2, and 0.12 MgSO4, pH 7.5). Homogenates were centrifuged (25,000 g, 15 minutes, 4° C.). Pellets were resuspended in 20 ml of buffer and incubated at 37° C., for 10 minutes, cooled to 4° C. and centrifuged (25,000 g, 15 minutes, 4° C.). Pellets were resuspended and centrifuged again using the same conditions. Final pellets were stored at −70° C. in assay buffer (in mM: 20 HEPES, 118 NaCl, 4.8 KCl, 2.5 CaCl2, and 1.2 MgSO4, pH 7.5). Upon use, final pellets were resuspended in ˜20 ml assay buffer. […] Control was in the absence of analog. […] Incubation proceeded for 60 minutes at room temperature using 96-well plates and was terminated by harvesting on Unifilter-96 GF/B filter plates, presoaked in 0.5% polyethylenimine, using a Packard FiterMate harvester. After washing 5× with 350 μl ice-cold assay buffer, filter plates were dried (60 minutes, 49° C.), bottom-sealed, and filled with Packard's MicroScint 20 cocktail (40 μl/well). After 60 minutes, filter plates were top-sealed, and radioactivity determined. Protein concentration was determined using BSA as the standard.
In test [6] the target is blood-brain barrier choline transporter. Type of test: in vivo, rat. The settings on record: read-out: apparent Ki, inhibition of [^3H]-choline uptake into brain. On the procedure:
Blood-brain barrier choline transporter affinity assays. Quaternary ammonium analogs were evaluated for their ability to inhibit [^3H]-choline uptake into brain providing an indication of the ability of these analogs to interact with the choline transporter. These assays were conducted using the in situ rat brain perfusion method of Takasato, et al., Am. J. Physiol. 1984, 247, 484, as modified by Allen and Smith, J. Neurochem., 2001, 76, 1032. […] Ki values were compared by ANOVA followed by Bonferoni's multiple comparisons test to determine if an analog inhibits [^3H]-choline uptake.
Analog affinity for, and transport by, the blood-brain barrier choline transporter.

Test [7] deals with T3, α7-type neuronal nicotinic acetylcholine receptors (Rattus norvegicus, UniProt Q05941).
T3 construct: Rat brain was dissected into the whole brain tissue without cortex, striatum and cerebellum; from tissue; host or cells: rat brain (without cortex, striatum, cerebellum) membranes
T3 sequence (Q05941 23-502): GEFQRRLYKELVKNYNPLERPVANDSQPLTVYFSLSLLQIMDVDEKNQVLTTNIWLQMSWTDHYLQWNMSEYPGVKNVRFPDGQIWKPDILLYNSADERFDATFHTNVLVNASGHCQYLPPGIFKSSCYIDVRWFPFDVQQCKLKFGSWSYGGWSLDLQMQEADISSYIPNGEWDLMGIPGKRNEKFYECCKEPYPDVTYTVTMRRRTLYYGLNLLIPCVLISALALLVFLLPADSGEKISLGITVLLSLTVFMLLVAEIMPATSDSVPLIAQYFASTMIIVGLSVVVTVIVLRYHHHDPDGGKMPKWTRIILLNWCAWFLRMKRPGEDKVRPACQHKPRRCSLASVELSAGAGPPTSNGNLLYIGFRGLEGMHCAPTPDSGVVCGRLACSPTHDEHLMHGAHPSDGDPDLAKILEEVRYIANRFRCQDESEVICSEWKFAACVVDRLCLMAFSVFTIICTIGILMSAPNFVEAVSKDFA
Nature of the test: biochemical. To be noted: rat brain membranes, 2.5 nM [^3H]-MLA; read-out: Ki, [^3H]MLA binding.

Test [8] has as its target T2, α7* nAChRs. To be noted: read-out: [^3H]MLA Binding Ki.
Protocol: as §1, §2, §3
In a further test the target is [^3H]DA Uptake. The test is described as follows: [^3H]DA uptake inhibition (Table 11). Type of test: biochemical.
Test [9] deals with T3, α7-type neuronal nicotinic acetylcholine receptors. The test is classed as binding. On the procedure:
Rat brain was dissected into the whole brain tissue without cortex, striatum and cerebellum and was frozen in liquid nitrogen and stored at −70° C. until use.
The brain tissue was homogenized with a Tekmar Polytron (setting 40) in 20 volumes of ice-cold hypotonic buffer (2 mM HEPES, 14.4 mM NaCl, 0.15 mM KCl, 0.2 mM CaCl2 and 0.1 mM MgSO4, pH=7.5). The homogenate was incubated at 37° C. for ten minutes and centrifuged at 25,000×g for 15 minutes at […] The pellet was washed three times more by resuspension in the 20 volumes of the same buffer and centrifugation at the above parameters. The final pellet was stored at −20° C. under 4.6 ml of the incubation buffer and was suspended just before the incubation with radioligand.
[^3H]MLA (25.4 Ci/mmol) was purchased from Tocris Cookson Ltd., Bristol, U.K. Binding was performed in duplicate, in a final volume of 250 μl of the incubation medium, containing 20 mM HEPES, 144 mM NaCl, 1.5 mM KCl, 2 mM CaCl2, 1 mM MgSO4 and 0.05% BSA, pH=7.5. Reaction was initiated by the addition of 100 μl of membrane suspension to the samples containing a desired concentration of test compounds and […] [^3H] MLA (final concentration) and incubated for 2 hours at room temperature. […] The binding reaction was terminated by dilution of samples with 3 ml of ice-cold incubation buffer followed by immediate filtration through presoaked in 0.5% polyethylenimine glass fiber filters (S&S, grade #32) using a Brandel harvester system. Filters were rinsed three times with 3 ml of ice-cold buffer, transferred to scintillation-vials and 4 ml of scintillation cocktail was added. Protein was measured using the Bradford dye-binding procedure with bovine serum albumin as the standard.

[10] abbreviates: read-out: IC50, inhibition of nicotine-evoked [^3H]dopamine release/overflow.
The mark [11] stands for this setting: read-out: [^3H]Nicotine Binding Ki, Table 11.
Where [12] appears, read: read-out: Nicotine-evoked [^3H]DA Overflow IC50, Table 11.
The mark [13] stands for this setting: read-out: [^3H]Nicotine Binding Ki, Table 7, mean (standard error).
Where [14] appears, read: read-out: Nicotine-evoked [^3H]DA Overflow IC50, Table 7, mean (standard error).

T2 sequence (Q05941 23-502): as above
Protocol for α4β2* nAChRs: as §1, §2, §3

On to `CCCCCCCCCCCC[n+]1cccc(C)c1.[I-]` [NDDPiI], for which the “maximal inhibition (Imax) of nicotine-evoked [^3H]DA overflow” value in test [1] is 63%. Besides, the IC50 in [1] (setting [10]) came to 30 nM. Besides, the “concentration evoking [^3H]DA overflow (intrinsic activity)” value in test [2] was no less than 1.0 µM.
For `CCCCCCCCCC[n+]1cccc(C2CCCN2C)c1` (stereo not drawn) [NDNI], the Ki in [3] was 110 nM; at α4β2* nAChRs ([^3H]Nicotine Binding Ki, Table 4, mean (95% confidence interval)) it was 90 nM; at α4β2* nAChRs (affinity for [^3H]-nicotine binding sites), roughly 90 nM; at α7* nAChRs [5] it was greater than 100000 nM; in [6] it was 27000 nM; in test [7] it was greater than 100000 nM. In addition, in test [4], the IC50 was greater than 100000 nM. Besides, the “mode of interaction with the high affinity [^3H]-nicotine binding site (Scatchard analyses)” value on α4β2* nAChRs (no change in Bmax) is on record as “competitive manner”. Moreover, the “inhibitory activity at the nAChR subtype mediating nicotine-evoked dopamine release” value in test [1] is given as “does not exhibit inhibitory activity”.
Regarding `c1ccc2c[n+](CCCCCCCCCCCC[n+]3ccc4ccccc4c3)ccc2c1` [bIQDDB, N,N′-Dodecane-1,12-diyl-bis-isoquinolinium Dibromide], the Ki in [3] was greater than 100000 nM; on α4β2* nAChRs (setting [11]), 6100 ± 730 nM; on α7* nAChRs [8] (Table 11), 2210 ± 250 nM; in test [^3H]DA Uptake it was 270 ± 70 nM; in [7], 12300 nM. The IC50 in test [1] (setting [12]) was determined as 7 ± 3 nM.
On to `CN1CCC[C@H]1c1ccc[n+](CCCCCCCCCCCC[n+]2cccc([C@@H]3CCCN3C)c2)c1` [bNDDB, N,N′-Dodecane-1,12-diyl-bis-nicotinium Dibromide], for which the Ki in test [3] stood at 1430 nM; at α4β2* nAChRs (setting [13]) it was 1950 nM; on α4β2* nAChRs (setting [11]) it was 1950 ± 190 nM; in test [^3H]DA Uptake, 43200 ± 14900 nM. Moreover, the IC50 turned out to be 4370 nM in test [4], 170 nM in [1] (setting [14]) and 40 ± 20 nM in test [1] (setting [12]).
On to `[Br-].[Br-].c1cc[n+](CCCCCCCCCCCC[n+]2ccccc2)cc1` [bPDDB, N,N′-Dodecane-1,12-diyl-bis-pyridinium Dibromide], for which the Ki in [3] is 9140 nM; at α4β2* nAChRs (setting [13]), 9150 nM; at α4β2* nAChRs (setting [11]), 9150 ± 170 nM; on α7* nAChRs [8] (Table 7, mean (standard error)), 33000 nM; at α7* nAChRs [8] (Table 11), 33000 ± 4600 nM; in [^3H]DA Uptake, greater than 100000 nM. For the same compound, the Ki in [7] is 35600 nM. Besides, the IC50 was 1000 nM in test [4], 1000 nM in test [1] (setting [14]) and 1000 ± 380 nM in test [1] (setting [12]). For the same compound, in test [9], the “binding affinity in the [^3H]MLA assay” value is listed as “moderate binding affinity”.
For `c1ccc2c(c1)ccc[n+]2CCCCCCCCCCCC[n+]1cccc2ccccc21` [bQDDB, N,N′-Dodecane-1,12-diyl-bis-quinolinium Dibromide], the IC50 in [4] was 20 nM; in test [1] (setting [12]) it was 21 ± 10 nM. The Ki turned out to be 1610 ± 210 nM at α7* nAChRs [8] (Table 11), 3860 ± 220 nM in test [^3H]DA Uptake and 1570 nM in test [7].
In the case of “N,N′-Dodecane-1,12-diyl-bis-picolinium Dibromide [bPiDDB]”, the Ki was 33000 nM in [3]; 49000 nM on α4β2* nAChRs (read-out: [^3H]Nicotine Binding Ki, Table 10, mean (standard error)); 48600 ± 17200 nM on α4β2* nAChRs (setting [11]); greater than 100000 nM in [9] (rat brain membranes, […] [^3H]-MLA, read-out: Ki, [^3H]MLA binding); greater than 100000 nM on α7* nAChRs [8] (Table 11); greater than 100000 nM in test [^3H]DA Uptake. Further, the IC50 in [4] is 5 nM; in test [1] (setting [10]), 5 nM; in test [1] (read-out: Nicotine-evoked [^3H]DA Overflow IC50, Table 10, mean (standard error)) it was 5 nM; in test [1] (setting [12]) it was 5 ± 3 nM. In addition, the “affinity for nAChR subtype mediating nicotine-evoked [^3H]DA overflow compared to α4β2* and α7* nAChRs” value in test [1] is reported as 4-5 orders of magnitude. In test [1], the “maximal inhibition (Imax) of nicotine-evoked [^3H]DA overflow” value was found to be 60%. Also, the “potency relative to DHβE in inhibiting nicotine-evoked [^3H]DA overflow” value in test [1] is “approximately 320 fold”.
